Source: the NIST ThermoML archive (doi:10.1016/j.jct.2013.01.013)
± gives the expanded uncertainty stated by the source.

Experiment: xn = mol fraction of the nth substance listed
Settings: 101 kPa, Liquid; for viscosity: Capillary tube (Ostwald / Ubbelohde) method; for speed of sound: Linear variable-path acoustic interferometer; for mass density: Pycnometric method

C=C(C)C(=O)OC [methyl methacrylate] + CC(=O)N(C)C
Settings	mass density [kg/m3]	speed of sound [m/s]	viscosity [mPa·s]
288.15 K, x1 = 0.0714	946.01 ± 0.27	1484.2 ± 1.6	1.103 ± 0.0091
288.15 K, x1 = 0.144	946.49 ± 0.27	1468.6 ± 1.6	1.057 ± 0.0087
288.15 K, x1 = 0.2125	946.92 ± 0.27	1452.9 ± 1.6	1.016 ± 0.0084
288.15 K, x1 = 0.2823	947.31 ± 0.27	1435.8 ± 1.6	0.9751 ± 0.0081
288.15 K, x1 = 0.3568	947.69 ± 0.27	1416.2 ± 1.6	0.9339 ± 0.0078
288.15 K, x1 = 0.4318	948.02 ± 0.27	1394.9 ± 1.5	0.8939 ± 0.0075
288.15 K, x1 = 0.5046	948.31 ± 0.26	1372.8 ± 1.5	0.856 ± 0.0072
288.15 K, x1 = 0.5769	948.54 ± 0.26	1349.9 ± 1.5	0.8196 ± 0.007
288.15 K, x1 = 0.6512	948.73 ± 0.26	1325.5 ± 1.5	0.7835 ± 0.0067
288.15 K, x1 = 0.7205	948.88 ± 0.26	1302.7 ± 1.5	0.7513 ± 0.0064
288.15 K, x1 = 0.7845	948.97 ± 0.26	1282.2 ± 1.4	0.7228 ± 0.0062
288.15 K, x1 = 0.8558	949.03 ± 0.26	1259.7 ± 1.4	0.6927 ± 0.006
288.15 K, x1 = 0.9281	949.07 ± 0.26	1237.5 ± 1.4	0.6628 ± 0.0058
288.15 K, x1 = 1	949.1 ± 0.26	1216.8 ± 1.4	0.634 ± 0.0056
293.15 K, x1 = 0.0714	941.45 ± 0.26	1467.3 ± 1.6	0.9972 ± 0.0083
293.15 K, x1 = 0.144	941.87 ± 0.26	1452.1 ± 1.6	0.957 ± 0.008
293.15 K, x1 = 0.2125	942.23 ± 0.26	1436.6 ± 1.6	0.9207 ± 0.0077
293.15 K, x1 = 0.2823	942.55 ± 0.26	1419.2 ± 1.6	0.8852 ± 0.0075
293.15 K, x1 = 0.3568	942.84 ± 0.25	1399.5 ± 1.5	0.8487 ± 0.0072
293.15 K, x1 = 0.4318	943.08 ± 0.25	1378.3 ± 1.5	0.8137 ± 0.0069
293.15 K, x1 = 0.5046	943.28 ± 0.25	1356.3 ± 1.5	0.7808 ± 0.0067
293.15 K, x1 = 0.5769	943.43 ± 0.25	1333.1 ± 1.5	0.7494 ± 0.0064
293.15 K, x1 = 0.6512	943.52 ± 0.25	1308.9 ± 1.5	0.7183 ± 0.0062
293.15 K, x1 = 0.7205	943.58 ± 0.25	1286.3 ± 1.5	0.691 ± 0.006
293.15 K, x1 = 0.7845	943.59 ± 0.25	1266 ± 1.4	0.6666 ± 0.0058
293.15 K, x1 = 0.8558	943.54 ± 0.25	1243.5 ± 1.4	0.6409 ± 0.0056
293.15 K, x1 = 0.9281	943.46 ± 0.25	1221.3 ± 1.4	0.6153 ± 0.0054
293.15 K, x1 = 1	943.37 ± 0.25	1200.5 ± 1.4	0.5903 ± 0.0053
298.15 K, x1 = 0.0714	936.89 ± 0.27	1448.2 ± 1.6	0.9087 ± 0.0077
298.15 K, x1 = 0.144	937.25 ± 0.27	1433.9 ± 1.6	0.8736 ± 0.0074
298.15 K, x1 = 0.2125	937.54 ± 0.27	1418.5 ± 1.6	0.8414 ± 0.0072
298.15 K, x1 = 0.2823	937.79 ± 0.26	1400.8 ± 1.5	0.8102 ± 0.0069
298.15 K, x1 = 0.3568	937.99 ± 0.26	1381 ± 1.5	0.7782 ± 0.0067
298.15 K, x1 = 0.4318	938.14 ± 0.26	1359.8 ± 1.5	0.7473 ± 0.0064
298.15 K, x1 = 0.5046	938.25 ± 0.26	1338 ± 1.5	0.7186 ± 0.0062
298.15 K, x1 = 0.5769	938.31 ± 0.26	1315.4 ± 1.5	0.6915 ± 0.006
298.15 K, x1 = 0.6512	938.31 ± 0.26	1291.5 ± 1.5	0.665 ± 0.0058
298.15 K, x1 = 0.7205	938.28 ± 0.26	1269.3 ± 1.4	0.6416 ± 0.0056
298.15 K, x1 = 0.7845	938.21 ± 0.26	1248.9 ± 1.4	0.6207 ± 0.0055
298.15 K, x1 = 0.8558	938.05 ± 0.26	1226.9 ± 1.4	0.5983 ± 0.0053
298.15 K, x1 = 0.9281	937.85 ± 0.26	1204.6 ± 1.4	0.5763 ± 0.0052
298.15 K, x1 = 1	937.63 ± 0.25	1183.6 ± 1.4	0.5544 ± 0.005
303.15 K, x1 = 0.0714	932.33 ± 0.28	1429.5 ± 1.6	0.8475 ± 0.0072
303.15 K, x1 = 0.144	932.63 ± 0.28	1415.5 ± 1.6	0.8152 ± 0.007
303.15 K, x1 = 0.2125	932.85 ± 0.28	1400.7 ± 1.6	0.7858 ± 0.0067
303.15 K, x1 = 0.2823	933.03 ± 0.27	1383.5 ± 1.5	0.7573 ± 0.0065
303.15 K, x1 = 0.3568	933.14 ± 0.27	1363.9 ± 1.5	0.7278 ± 0.0063
303.15 K, x1 = 0.4318	933.2 ± 0.27	1342.9 ± 1.5	0.6995 ± 0.0061
303.15 K, x1 = 0.5046	933.22 ± 0.27	1321.2 ± 1.5	0.6733 ± 0.0059
303.15 K, x1 = 0.5769	933.19 ± 0.27	1298.9 ± 1.5	0.649 ± 0.0057
303.15 K, x1 = 0.6512	933.1 ± 0.27	1275.4 ± 1.4	0.6253 ± 0.0055
303.15 K, x1 = 0.7205	932.98 ± 0.27	1253.7 ± 1.4	0.6042 ± 0.0054
303.15 K, x1 = 0.7845	932.82 ± 0.27	1233.8 ± 1.4	0.5853 ± 0.0052
303.15 K, x1 = 0.8558	932.56 ± 0.27	1211.8 ± 1.4	0.565 ± 0.0051
303.15 K, x1 = 0.9281	932.24 ± 0.27	1189.9 ± 1.4	0.545 ± 0.0049
303.15 K, x1 = 1	931.89 ± 0.26	1168.5 ± 1.4	0.5251 ± 0.0048
308.15 K, x1 = 0.0714	927.77 ± 0.29	1409.8 ± 1.6	0.789 ± 0.0068
308.15 K, x1 = 0.144	928.01 ± 0.29	1396.4 ± 1.6	0.7601 ± 0.0066
308.15 K, x1 = 0.2125	928.16 ± 0.29	1382.1 ± 1.5	0.7332 ± 0.0064
308.15 K, x1 = 0.2823	928.26 ± 0.28	1365.2 ± 1.5	0.7071 ± 0.0062
308.15 K, x1 = 0.3568	928.29 ± 0.28	1345.7 ± 1.5	0.68 ± 0.006
308.15 K, x1 = 0.4318	928.26 ± 0.28	1324.8 ± 1.5	0.654 ± 0.0058
308.15 K, x1 = 0.5046	928.19 ± 0.28	1303.4 ± 1.5	0.6305 ± 0.0056
308.15 K, x1 = 0.5769	928.07 ± 0.28	1281.5 ± 1.5	0.6082 ± 0.0054
308.15 K, x1 = 0.6512	927.89 ± 0.28	1258.5 ± 1.4	0.5867 ± 0.0053
308.15 K, x1 = 0.7205	927.68 ± 0.28	1237.5 ± 1.4	0.5678 ± 0.0051
308.15 K, x1 = 0.7845	927.43 ± 0.28	1217.7 ± 1.4	0.5507 ± 0.005
308.15 K, x1 = 0.8558	927.07 ± 0.28	1196.1 ± 1.4	0.5325 ± 0.0048
308.15 K, x1 = 0.9281	926.63 ± 0.27	1174.2 ± 1.4	0.514 ± 0.0047
308.15 K, x1 = 1	926.15 ± 0.27	1152.6 ± 1.3	0.496 ± 0.0046
313.15 K, x1 = 0.0714	923.21 ± 0.3	1392.2 ± 1.5	0.743 ± 0.0064
313.15 K, x1 = 0.144	923.38 ± 0.3	1379.6 ± 1.5	0.7165 ± 0.0062
313.15 K, x1 = 0.2125	923.46 ± 0.29	1365.5 ± 1.5	0.6916 ± 0.0061
313.15 K, x1 = 0.2823	923.49 ± 0.29	1348.6 ± 1.5	0.6671 ± 0.0059
313.15 K, x1 = 0.3568	923.44 ± 0.29	1328.3 ± 1.5	0.6422 ± 0.0057
313.15 K, x1 = 0.4318	923.32 ± 0.29	1306.9 ± 1.5	0.6183 ± 0.0055
313.15 K, x1 = 0.5046	923.16 ± 0.29	1285.6 ± 1.5	0.5963 ± 0.0053
313.15 K, x1 = 0.5769	922.95 ± 0.29	1263.9 ± 1.4	0.5759 ± 0.0052
313.15 K, x1 = 0.6512	922.68 ± 0.29	1241.1 ± 1.4	0.5562 ± 0.005
313.15 K, x1 = 0.7205	922.38 ± 0.29	1220.1 ± 1.4	0.5387 ± 0.0049
313.15 K, x1 = 0.7845	922.04 ± 0.29	1200.9 ± 1.4	0.523 ± 0.0048
313.15 K, x1 = 0.8558	921.57 ± 0.29	1179 ± 1.4	0.506 ± 0.0047
313.15 K, x1 = 0.9281	921.01 ± 0.28	1157.2 ± 1.4	0.4891 ± 0.0045
313.15 K, x1 = 1	920.41 ± 0.28	1135.4 ± 1.3	0.4723 ± 0.0044
318.15 K, x1 = 0.0714	918.65 ± 0.31	1374.5 ± 1.5	0.7095 ± 0.0062
318.15 K, x1 = 0.144	918.75 ± 0.31	1362.8 ± 1.5	0.6842 ± 0.006
318.15 K, x1 = 0.2125	918.76 ± 0.3	1348.2 ± 1.5	0.6607 ± 0.0058
318.15 K, x1 = 0.2823	918.72 ± 0.3	1330.9 ± 1.5	0.6374 ± 0.0057
318.15 K, x1 = 0.3568	918.59 ± 0.3	1310.1 ± 1.5	0.6135 ± 0.0055
318.15 K, x1 = 0.4318	918.38 ± 0.3	1288.6 ± 1.5	0.5905 ± 0.0053
318.15 K, x1 = 0.5046	918.13 ± 0.3	1267.2 ± 1.4	0.5693 ± 0.0051
318.15 K, x1 = 0.5769	917.83 ± 0.3	1245.9 ± 1.4	0.5497 ± 0.005
318.15 K, x1 = 0.6512	917.47 ± 0.3	1223.7 ± 1.4	0.5307 ± 0.0048
318.15 K, x1 = 0.7205	917.08 ± 0.3	1202.8 ± 1.4	0.5141 ± 0.0047
318.15 K, x1 = 0.7845	916.65 ± 0.3	1184 ± 1.4	0.4991 ± 0.0046
318.15 K, x1 = 0.8558	916.07 ± 0.29	1162.4 ± 1.4	0.4828 ± 0.0045
318.15 K, x1 = 0.9281	915.39 ± 0.29	1140.2 ± 1.3	0.4662 ± 0.0044
318.15 K, x1 = 1	914.66 ± 0.29	1118.3 ± 1.3	0.4499 ± 0.0042
